In article PMC9599704, “Liposomal Entrapment or Chemical Modification of Relaxin2 for Prolongation of Its Stability and Biological Activity” (Biomolecules, 2022):

Assay: in vitro
Procedure: Samples were placed separately in hermetically sealed screw-tubes (to avoid evaporation) and then in an orbital incubator (Stuart S1500, UK) set at 50 rpm and 37 °C, for a period of up to 30 d. […] For quantification of free or liposomal peptides in the presence of 80% FBS, serum proteins precipitation was accomplished by mixing one volume of sample (100 μL) with three volumes (300 μL) of acidified isopropanol (with 0.1% TFA), followed by vortex agitation and centrifugation at 15000 rpm for 15 min. Next, the supernatant was transferred to a new eppendorf tube and 400 μL of HEPES (pH 5.0) were added, followed by vigorous vortex for 1 min, in order to retrieve the peptide. Finally, the samples were analyzed by HPLC, based on a calibration curve constructed at the exact same conditions as the samples to be analyzed.
For direct comparison of the stability of the different peptides, the results were normalized and expressed as the percentage of the corresponding initial peptide concentration measured at time point 0, for each peptide and each formulation (solution or liposome). Experiments were carried out in triplicate, and the results are expressed as the mean value ± standard deviation.

## CC[C@H](C)[C@@H]1NC(=O)[C@H](C)NC(=O)[C@H]([C@@H](C)CC)NC(=O)[C@H](CCC(N)=O)NC(=O)[C@H](C)NC(=O)[C@H](CCCNC(=N)N)NC(=O)[C@H](C(C)C)NC(=O)[C@H](CC(C)C)NC(=O)[C@H](CCC(=O)O)NC(=O)[C@H](CCCNC(=N)N)NC(=O)CNC(=O)[C@@H](NC(=O)[C@H](CC(C)C)NC(=O)[C@H](CCCCN)NC(=O)[C@@H](NC(=O)[C@@H](NC(=O)[C@H](CCC(=O)O)NC(=O)[C@H](CCC(=O)O)NC(=O)[C@H](CCSC)NC(=O)[C@H](Cc2c[nH]c3ccccc23)NC(=O)[C@H](CO)NC(=O)[C@@H](N)CC(=O)O)C(C)C)[C@@H](C)CC)CSSC[C@@H]2NC(=O)[C@@H](NC(=O)[C@H](CCCCN)NC(=O)[C@H](CC(N)=O)NC(=O)[C@H](C)NC(=O)[C@H](CC(C)C)NC(=O)[C@H](C)NC(=O)[C@H](CO)NC(=O)[C@H](Cc3ccc(O)cc3)NC(=O)[C@H](CC(C)C)NC(=O)[C@@H]3CCC(=O)N3)CSSC[C@H](NC(=O)CNC(=O)[C@H](C(C)C)NC(=O)[C@H](Cc3c[nH]cn3)NC2=O)C(=O)N[C@@H]([C@@H](C)O)C(=O)N[C@@H](CCCCN)C(=O)N[C@@H](CCCNC(=N)N)C(=O)N[C@@H](CO)C(=O)N[C@@H](CC(C)C)C(=O)N[C@@H](C)C(=O)N[C@@H](CCCNC(=N)N)C(=O)N[C@@H](Cc2ccccc2)C(=O)N[C@H](C(=O)O)CSSC[C@@H](C(=O)NCC(=O)N[C@@H](CC[S+](C)[O-])C(=O)N[C@@H](CO)C(=O)N[C@H](C(=O)N[C@@H](Cc2c[nH]c3ccccc23)C(=O)N[C@@H](CO)C(=O)O)[C@@H](C)O)NC1=O (some centres unmarked) [O-RLX2, Met (O)^25-human relaxin 2]
FBS 80% v/v, 37 °C, 10 d, 58 ± 5.0 μg/mL peptide, HPLC, % of initial concentration, triplicate
  peptide remaining after 10 d of incubation in FBS: all the free O-RLX2 peptide was degraded
Fetal bovine serum (FBS) 80% v/v
  half-life: 83.5 h
